Experimental data as given in the SangsterLogP compilation.

Work on CCC(=O)C(CCN(C)C)(c1ccccc1)c1ccc(Cl)cc1 (stereo not drawn) yielded a logP of 4.9. Compound CCC(=O)C(CCN(C)C)(c1ccc(F)cc1)c1ccc(F)cc1 has a logP of 4.84. For CCC(=O)C(CCN(C)C)(c1ccccc1)c1ccc(F)cc1 (stereo not drawn), the logP was 4.19. For CCC(=O)C(CCN(C)C)(c1ccccc1)c1ccc(Br)cc1 (stereo not drawn), the logP was 5.23. Compound CCC(=O)C(CCN(C)C)(c1ccccc1)C1CCCCC1 (stereo not drawn) has a logP of 5.13. With CCC(=O)C(CCN(C)C)(c1ccccc1)C1CCCC1 (stereo not drawn) the logP was 4.53. Compound CCC(=O)C(CCN(C)C)(c1ccccc1)c1cccc(F)c1 (stereo not drawn) has a logP of 4.17. Compound CCC(=O)C(CCN(C)C)(c1ccccc1)c1ccc(OC)cc1 (stereo not drawn) has a logP of 4.28. Work on CCC(=O)C(CCN(C)C)(c1ccccc1)c1ccc(C)cc1 (stereo not drawn) yielded a logP of 4.93. For CCC(=O)C(CCN(C)C)(c1ccccc1)c1ccc(O)cc1 (stereo not drawn), the logP was 3.45. For CCC(=O)C(CCN(C)C)(c1ccccc1)c1ccccc1, the logP was 4.15. In the case of CCC(=O)C(CCN(C)C)(c1ccccc1)c1ccc(SC)cc1 (stereo not drawn), the logP is reported as 4.96. In the case of CCC(=O)C(CCN(C)C)(c1ccccc1)C1CCCCCC1 (stereo not drawn), the logP is reported as 5.91.
